Results taken from publication PMC3170524 (Physiological research / Academia Scientiarum Bohemoslovaca, 2010).
Where a chain is given by its changes, count along the chain named.

What was measured:
Assay in all cases: whole-cell patch clamp, peak current dose-response
Assay type in all cases: cell-based
rat P2X4R [1] = target: T1, rat P2X4R (Rattus norvegicus, UniProt P51577)
T1 sequence (P51577 1-388): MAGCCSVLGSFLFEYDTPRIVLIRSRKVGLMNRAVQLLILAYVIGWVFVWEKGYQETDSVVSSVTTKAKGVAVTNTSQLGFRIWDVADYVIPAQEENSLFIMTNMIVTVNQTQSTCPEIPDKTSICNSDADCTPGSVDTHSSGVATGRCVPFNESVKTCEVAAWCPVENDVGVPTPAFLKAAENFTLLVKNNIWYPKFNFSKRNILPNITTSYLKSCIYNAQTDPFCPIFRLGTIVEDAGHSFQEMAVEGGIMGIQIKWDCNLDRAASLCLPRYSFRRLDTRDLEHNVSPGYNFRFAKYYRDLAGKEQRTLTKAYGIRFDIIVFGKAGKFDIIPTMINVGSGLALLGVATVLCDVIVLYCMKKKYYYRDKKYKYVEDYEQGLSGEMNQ

rat P2X4R [2] = target: T2, rat P2X4R (Rattus norvegicus, UniProt P51577, C217T)
T2 sequence (P51577 1-388 C217T): T1 sequence (P51577 1-388) with C217T

rat P2X4R [3] = target: T3, rat P2X4R (Rattus norvegicus, UniProt P51577, C116T/C165T)
T3 sequence (P51577 1-388 C116T/C165T): T1 sequence (P51577 1-388) with C116T, C165T

rat P2X4R [4] = target: T4, rat P2X4R (Rattus norvegicus, UniProt P51577, C261A)
T4 sequence (P51577 1-388 C261A): T1 sequence (P51577 1-388) with C261A

rat P2X4R [5] = target: T5, rat P2X4R (Rattus norvegicus, UniProt P51577, C159A)
T5 sequence (P51577 1-388 C159A): T1 sequence (P51577 1-388) with C159A

rat P2X4R [6] = target: T6, rat P2X4R (Rattus norvegicus, UniProt P51577, C126T/C149T)
T6 sequence (P51577 1-388 C126T/C149T): T1 sequence (P51577 1-388) with C126T, C149T

rat P2X4R [7] = target: T7, rat P2X4R (Rattus norvegicus, UniProt P51577, C132T)
T7 sequence (P51577 1-388 C132T): T1 sequence (P51577 1-388) with C132T

EC50 (rat P2X4R [1]): 4.6 ± 0.5 µM
EC50 (rat P2X4R [2]): 7.2 ± 2.9 µM
EC50 (rat P2X4R [3]): 57 ± 19 µM
EC50 (rat P2X4R [4]): 5.5 ± 1.7 µM
EC50 (rat P2X4R [5]): 5.1 ± 1.4 µM
EC50 (rat P2X4R [6]): 65 ± 24 µM
EC50 (rat P2X4R [7]): 8.2 ± 2.1 µM
Structure (SMILES): Nc1ncnc2c1ncn2[C@@H]1O[C@H](COP(=O)(O)OP(=O)(O)OP(=O)(O)O)[C@@H](O)[C@H]1O [ATP]
